Patent US5591741A, “Fungicidal spiroheterocyclic derivatives” (American Cyanamid Company, priority 1993, dated 1997)

Assays:
Alternaria solani = experiment: Activity against tomato early blight (AS); assay type: in vivo; details: Table VI; tomato seedlings, contact prophylactic foliar spray, 4 days
Summary of the method: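 Foliar contact prophylactic spray on tomato seedlings (cv Outdoor Girl, second true leaf expanded) in acetone/water 50:50 with 0.04% Tween 20; 24 h at 20° C, 40% R.H., then inoculation with 10^4 spores/ml A. solani conidia. Kept moist at 21° C; lesion cover rated 4 days post-inoculation against untreated or diluent-sprayed controls.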

Pyricularia oryzae = assay type: in vivo; details: rice seedlings, direct therapeutic foliar spray, 600 ppm, 4-5 days
[1] = system: Pseudocercosporella herpotrichoides; experiment: Activity against wheat eyespot in-vitro (PHI); assay type: cell-based; details: 10 ppm, 10 days, 20° C., mycelial growth
Summary of the method: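 P. herpotrichoides mycelial fragments (5×10^4/ml) grown in half-strength PDB with compound at 10 ppm final, added from acetone. Incubated 10 days at 20 °C; mycelial growth rated against untreated or diluent controls.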

Phytophthora infestans = assay type: in vivo; details: tomato, direct protectant foliar spray
Rhizoctonia solani = experiment: Activity against Rhizoctonia in-vitro (RSI); assay type: cell-based; details: 10 ppm, 10 days, 20° C., mycelial growth
Summary of the method: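 R. solani mycelial fragments (5×10^4/ml) in half-strength Potato Dextrose Broth with compound added from acetone to 10 ppm final. Mycelial growth assessed after 10 days at 20° C, rated against untreated or diluent control.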

[2] = system: Erysiphe graminis f.sp. hordei; experiment: Direct protectant activity against barley powdery mildew (EGP); assay type: in vivo; details: direct protectant foliar spray, 8 days
Summary of the method: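 Barley seedlings (cv Golden Promise, single-leaf stage) were foliar-sprayed, held 24 h at 18 °C/40% RH, then dusted with mildew conidia. After 8 days at 18 °C/40% RH, sporulating leaf area was scored as a rating against untreated or diluent-sprayed controls.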

Leptosphaeria nodorum = experiment: Activity against wheat leafspot (LN); assay type: in vivo; details: direct therapeutic foliar spray, 600 ppm, 6-8 days
Summary of the method: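 Wheat cv Norman at single-leaf stage spray-inoculated with 1.5×10^6 conidia/ml, held 24 h at high humidity, then sprayed therapeutically with test compound at 600 ppm. Kept 6-8 days at 22° C, 70% humidity; lesion density per leaf rated against untreated or diluent-sprayed controls.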

[3] = system: Erysiphe graminis f.sp. hordei; experiment: Activity against barley powdery mildew, direct therapeutic (EGT); assay type: in vivo; details: direct therapeutic foliar spray, 600 ppm, up to 7 days
Summary of the method: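 Barley seedlings (cv. Golden Promise, single-leaf stage) were dusted with mildew conidia one day before a therapeutic foliar spray of 600 ppm compound. Plants were kept at 18 °C and 40% humidity for up to 7 days, and sporulating leaf area was rated against untreated or diluent-sprayed controls.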

Botrytis cinerea = experiment: Direct protectant activity against broad bean grey mould (BCB); assay type: in vivo; details: direct protectant foliar spray, 600 ppm, 4 days
Summary of the method: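 Broad bean plants (cv The Sutton, two leaf pairs) sprayed on upper leaf surfaces at 600 ppm, then inoculated 24 h later with 10^6 conidia/ml. Kept 4 days at 22 °C, high humidity; disease control rated from % leaf area with lesions against untreated or diluent controls.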

Venturia inaequalis = experiment: Activity against apple scab in-vitro (VII); assay type: cell-based; details: 10 ppm, 10 days, 20° C., mycelial growth
Summary of the method: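 Compound in acetone was tested at 10 ppm final in half-strength Potato Dextrose Broth inoculated with V. inaequalis mycelial fragments and spores at 5×10^4 propagules/ml. After 10 days at 20° C, mycelial growth was rated against untreated or diluent controls.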

Plasmopara viticola = experiment: Antisporulant activity against vine downy mildew (PVA); assay type: in vivo; details: vine leaves, antisporulant foliar spray, 600 ppm, 750 l/ha
Summary of the method: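 Cabernet Sauvignon vines (~8 cm) inoculated on lower leaf surfaces with 5×10^4 zoosporangia/ml, held 24 h at 21° C high humidity then 24 h glasshouse. Infected leaves sprayed underside with 600 ppm compound in 1:1 water/acetone, 0.04% Tween 20, 750 l/ha; 96 h glasshouse, 24 h humidity. Sporulating leaf area rated versus control.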

SMILES	disease control rating AS (Alternaria solani)	disease control rating PO (Pyricularia oryzae)	disease control rating PHI [1]	disease control rating PIP (Phytophthora infestans)	disease control rating RSI (Rhizoctonia solani)	disease control rating EGP [2]	disease control rating LN (Leptosphaeria nodorum)	disease control rating EGT [3]	disease control rating BCB (Botrytis cinerea)	disease control rating VII (Venturia inaequalis)	disease control rating PVA (Plasmopara viticola)
CCN(CC1(C)CCCCC1)C1COC2(CCC(C(C)(C)C)CC2)C1 (centres unmarked) [Compound 126]	0 (less than 50% disease control)	0 (less than 50% disease control)	0 (less than 50% disease control)	0 (less than 50% disease control)	0 (less than 50% disease control)	2 (greater than 80% disease control)	0 (less than 50% disease control)	2 (greater than 80% disease control)	0 (less than 50% disease control)	1 (about 50-80% disease control)	0 (less than 50% disease control)
CCCN(CC1(C)CCCCC1)C1COC2(CCC(C(C)(C)C)CC2)C1 (centres unmarked) [Compound 127]	0 (less than 50% disease control)	0 (less than 50% disease control)	0 (less than 50% disease control)	0 (less than 50% disease control)	0 (less than 50% disease control)	2 (greater than 80% disease control)	0 (less than 50% disease control)	2 (greater than 80% disease control)	0 (less than 50% disease control)	1 (about 50-80% disease control)	0 (less than 50% disease control)
CN(C1COC2(CCC(C(C)(C)C)CC2)C1)C1CC2CCC1C2 (centres unmarked) [Compound 128]	2 (greater than 80% disease control)	0 (less than 50% disease control)	0 (less than 50% disease control)	0 (less than 50% disease control)	0 (less than 50% disease control)	2 (greater than 80% disease control)	0 (less than 50% disease control)	2 (greater than 80% disease control)	0 (less than 50% disease control)	1 (about 50-80% disease control)	0 (less than 50% disease control)
CCN(C1COC2(CCC(C(C)(C)C)CC2)C1)C1CC2CCC1C2 (centres unmarked) [Compound 129]	0 (less than 50% disease control)	0 (less than 50% disease control)	0 (less than 50% disease control)	0 (less than 50% disease control)	0 (less than 50% disease control)	2 (greater than 80% disease control)	0 (less than 50% disease control)	2 (greater than 80% disease control)	0 (less than 50% disease control)	1 (about 50-80% disease control)	0 (less than 50% disease control)
CCCN(C1COC2(CCC(C(C)(C)C)CC2)C1)C1CC2CCC1C2 (centres unmarked) [Compound 130]	0 (less than 50% disease control)	0 (less than 50% disease control)	0 (less than 50% disease control)	2 (greater than 80% disease control)	0 (less than 50% disease control)	2 (greater than 80% disease control)	0 (less than 50% disease control)	2 (greater than 80% disease control)	0 (less than 50% disease control)	1 (about 50-80% disease control)	0 (less than 50% disease control)
CN(CC(C)(C)C)C1COC2(CCC(C(C)(C)C)CC2)C1 (centres unmarked) [Compound 131]	0 (less than 50% disease control)	0 (less than 50% disease control)	0 (less than 50% disease control)	0 (less than 50% disease control)	0 (less than 50% disease control)	2 (greater than 80% disease control)	0 (less than 50% disease control)	2 (greater than 80% disease control)	0 (less than 50% disease control)	1 (about 50-80% disease control)	0 (less than 50% disease control)
CCN(CC(C)(C)C)C1COC2(CCC(C(C)(C)C)CC2)C1 (centres unmarked) [Compound 132]	0 (less than 50% disease control)	0 (less than 50% disease control)	0 (less than 50% disease control)	0 (less than 50% disease control)	0 (less than 50% disease control)	2 (greater than 80% disease control)	0 (less than 50% disease control)	2 (greater than 80% disease control)	0 (less than 50% disease control)	1 (about 50-80% disease control)	0 (less than 50% disease control)
CCCN(CC(C)(C)C)C1COC2(CCC(C(C)(C)C)CC2)C1 (centres unmarked) [Compound 133]	0 (less than 50% disease control)	0 (less than 50% disease control)	0 (less than 50% disease control)	0 (less than 50% disease control)	0 (less than 50% disease control)	2 (greater than 80% disease control)	0 (less than 50% disease control)	2 (greater than 80% disease control)	0 (less than 50% disease control)	1 (about 50-80% disease control)	0 (less than 50% disease control)
CC(C)(C)CNC1COC2(CCC(C(C)(C)C)CC2)C1 (centres unmarked) [Compound 134]	0 (less than 50% disease control)	0 (less than 50% disease control)	0 (less than 50% disease control)	0 (less than 50% disease control)	0 (less than 50% disease control)	2 (greater than 80% disease control)	0 (less than 50% disease control)	2 (greater than 80% disease control)	0 (less than 50% disease control)	0 (less than 50% disease control)	0 (less than 50% disease control)
CC(C)CNC1COC2(CCC(C(C)(C)CC(C)(C)C)CC2)C1 (centres unmarked) [Compound 137]	0 (less than 50% disease control)	0 (less than 50% disease control)	2 (greater than 80% disease control)	0 (less than 50% disease control)	2 (greater than 80% disease control)	2 (greater than 80% disease control)	2 (greater than 80% disease control)	2 (greater than 80% disease control)	0 (less than 50% disease control)	1 (about 50-80% disease control)	0 (less than 50% disease control)
